Laboratory results: US7807703B2, “Substituted aryl ketones” (Bayer CropScience AG, priority 2002, dated 2010)

Experiment: log P determination by reversed-phase HPLC (EEC Directive 79/831 Annex V.A8; acidic or neutral mobile phase)
Assay type: physicochemical
Details: HPLC reversed-phase C18, 43° C., acidic range: 0.1% aqueous phosphoric acid, acetonitrile (marked a))
Experimental: The log P values given in the table were determined in accordance with EEC Directive 79/831 Annex V.A8 by HPLC (High Performance Liquid Chromatography) using a reversed-phase column (C 18). Temperature: 43° C.
(a) Mobile phases for the determination in the acidic range: 0.1% aqueous phosphoric acid, acetonitrile; linear gradient from 10% acetonitrile to 90% acetonitrile—the corresponding measurement results are marked a) in Table 1.
(b) Mobile phases for the determination in the neutral range: 0.01 molar aqueous phosphate buffer solution, acetonitrile; linear gradient from 10% acetonitrile to 90% acetonitrile—the corresponding measurement results are marked b) in Table 1.

| SMILES | logP |
| --- | --- |
| CON(Cc1cccnc1)Cc1c(S(C)(=O)=O)ccc(C(=O)C2C(=O)CCCC2=O)c1Cl [Example 216] | (I-2) logP = 1.47^a) |

Same assay, conditions: HPLC reversed-phase C18, 43° C.; acidic range: 0.1% aqueous phosphoric acid, acetonitrile gradient (marked a))

| SMILES | logP |
| --- | --- |
| CCn1ncc(C(=O)c2ccc(Cl)c(OCCNS(=O)(=O)CCl)c2Cl)c1O [Example 8] | logP = 2.05^a) |
| CCS(=O)(=O)NCCOc1c(Br)ccc(C(=O)C2C(=O)CCCC2=O)c1Br [Example 20] | logP = 2.45^a) |
| CC(C)S(=O)(=O)NCCOc1c(Cl)ccc(C(=O)C2C(=O)CCCC2=O)c1Cl [Example 25] | logP = 2.50^a) |
| C=CCN(Cc1c(S(C)(=O)=O)ccc(C(=O)c2cnn(CC)c2O)c1Cl)OC [Example 157] | (I-2) logP = 2.29^a) |
| CS(=O)(=O)NCCOc1c(S(C)(=O)=O)ccc(C(=O)C2C(=O)CCCC2=O)c1Cl [Example 14] | logP = 1.76^a) |
| CCn1ncc(C(=O)c2ccc(S(C)(=O)=O)c(OCCNS(C)(=O)=O)c2Cl)c1O [Example 13] | logP = 1.23^a) |
| CCN(Cc1c(S(C)(=O)=O)ccc(C(=O)c2cnn(CC)c2O)c1Cl)OC [Example 149] | logP = 2.16^a) |
| CCn1ncc(C(=O)c2ccc(Cl)c(OCCNS(=O)(=O)c3cccs3)c2Cl)c1O [Example 34] | (I-2) logP = 2.41^a) |
| CCCS(=O)(=O)NCCOc1c(Cl)ccc(C(=O)C2C(=O)CCCC2=O)c1Cl [Example 168] | logP = 2.67^a) |
| CCn1ncc(C(=O)c2ccc(Cl)c(OCCNS(=O)(=O)C(C)C)c2Cl)c1O [Example 24] | logP = 2.07^a) |

Same assay, conditions: HPLC, reversed-phase C18, 43° C.; acidic range a): 0.1% aqueous phosphoric acid, acetonitrile, linear gradient 10% to 90% acetonitrile

| SMILES | logP |
| --- | --- |
| CCON(C)Cc1c(S(C)(=O)=O)ccc(C(=O)C2C(=O)CCC(C)(C)C2=O)c1Cl (stereo not shown) [Example 425] | (I-2) logP = 3.65^a) |
| CCn1ncc(C(=O)c2ccc(S(C)(=O)=O)c(CN(C)S(C)(=O)=O)c2Cl)c1O [Example 452] | logP = 1.25^a) |
| CN(Cc1c(S(C)(=O)=O)ccc(C(=O)C2C(=O)CCCC2=O)c1Cl)S(C)(=O)=O [Example 454] | logP = 1.84^a) |
| CCN(Cc1c(S(C)(=O)=O)ccc(C(=O)c2cnn(C)c2O)c1Cl)S(C)(=O)=O [Example 469] | logP = 1.22^a) |
| CCN(Cc1c(S(C)(=O)=O)ccc(C(=O)C2C(=O)CC(C)CC2=O)c1Cl)S(C)(=O)=O (stereo not shown) [Example 475] | (I-2) logP = 2.32^a) |
| CC(C)ON(Cc1c(S(C)(=O)=O)ccc(C(=O)c2cnn(C)c2O)c1Cl)C(C)C [Example 400] | logP = 2.81^a) |
| COCCON(C)Cc1c(S(C)(=O)=O)ccc(C(=O)C2C(=O)CCC(C)(C)C2=O)c1Cl (stereo not shown) [Example 432] | (I-2) logP = 3.22^a) |
| CON(Cc1c(S(C)(=O)=O)ccc(C(=O)c2cnn(C)c2O)c1Cl)C(C)C1CC1 (stereo not shown) [Example 374] | (I-2) logP = 2.53^a) |
| CCn1ncc(C(=O)c2ccc(Cl)c(OCCNS(C)(=O)=O)c2C)c1O [Example 360] | logP = 1.82^a) |
| CCON(CC)Cc1c(S(C)(=O)=O)ccc(C(=O)c2cnn(CC)c2O)c1Cl [Example 451] | logP = 2.44^a) |
| CN(Cc1c(S(C)(=O)=O)ccc(C(=O)C2C(=O)CCCC2=O)c1Cl)OCC1CCOC1 (stereo not shown) [Example 434] | (I-2) logP = 2.67^a) |
| CCON(Cc1c(S(C)(=O)=O)ccc(C(=O)c2cnn(C)c2O)c1Cl)CC1CCOC1 (stereo not shown) [Example 427] | (I-2) logP = 1.90^a) |
| CCn1ncc(C(=O)c2ccc(S(C)(=O)=O)c(CN(C)OCC3CCOC3)c2Cl)c1O (stereo not shown) [Example 435] | (I-2) logP = 2.03^a) |
| CCN(Cc1c(S(C)(=O)=O)ccc(C(=O)c2c(C)nn(C)c2O)c1Cl)OC [Example 407] | (I-2) logP = 1.76^a) |
| CCn1ncc(C(=O)c2ccc(S(C)(=O)=O)c(CN(CC3CCOC3)OC3CCCC3)c2Cl)c1O (stereo not shown) [Example 417] | (I-2) logP = 2.76^a) |
| CON(CC(=O)N(C)C)Cc1c(S(C)(=O)=O)ccc(C(=O)C2C(=O)CCC(C)(C)C2=O)c1Cl (stereo not shown) [Example 419] | (I-2) logP = 2.58^a) |
| CN(Cc1c(S(C)(=O)=O)ccc(C(=O)C2C(=O)CCC(C)(C)C2=O)c1Cl)S(C)(=O)=O (stereo not shown) [Example 455] | (I-2) logP = 2.43^a) |
| CCn1ncc(C(=O)c2ccc(S(C)(=O)=O)c(CN(C)OC3CCCC3)c2Cl)c1O [Example 397] | (I-2) logP = 2.87^a) |
| COc1c(C(=O)c2cnn(C)c2O)ccc(Cl)c1CN(C)OC [Example 478] | logP = 1.90^a) |
| CCONCc1c(Cl)ccc(C(=O)C2C(=O)CCCC2=O)c1OC [Example 447] | logP = 2.20^a) |
| CCn1ncc(C(=O)c2ccc(S(C)(=O)=O)c(CN(OC)C3CCOC3)c2Cl)c1O (stereo not shown) [Example 410] | (I-2) logP = 1.70^a) |
| CN(Cc1c(S(C)(=O)=O)ccc(C(=O)c2cnn(C)c2O)c1Cl)OCC1CCCCO1 (stereo not shown) [Example 440] | (I-2) logP = 2.01^a) |
| CN(Cc1c(Cl)ccc(C(=O)c2cnn(C)c2O)c1Cl)S(C)(=O)=O [Example 457] | logP = 1.44^a) |
| CCn1ncc(C(=O)c2ccc(S(C)(=O)=O)c(CN(C)OC(C)C)c2Cl)c1O [Example 395] | logP = 2.33^a) |
| CCN(Cc1c(Cl)ccc(C(=O)c2cnn(C)c2O)c1OC)S(C)(=O)=O [Example 463] | logP = 1.80^a) |
| CCON(C)Cc1c(S(C)(=O)=O)ccc(C(=O)c2cnn(C)c2O)c1Cl [Example 414] | logP = 1.71^a) |

Same assay, conditions: HPLC, reversed-phase C 18, 43° C.; acidic range: 0.1% aqueous phosphoric acid, acetonitrile (marked a) or acidic)

| SMILES | log P (acidic) |
| --- | --- |
| C=CCN(Cc1c(S(C)(=O)=O)ccc(C(=O)OC)c1Cl)S(C)(=O)=O [VIII-73] | logPacidic = 2.03 |
| COC(=O)c1ccc(S(C)(=O)=O)c(CN(C)OC)c1Cl [VIII-22] | logPacidic = 2.31 |
| COC(=O)c1ccc(S(C)(=O)=O)c(CN(C)OC2CCCC2)c1Cl [VIII-49] | logPacidic = 3.48 |
| COC(=O)c1ccc(S(C)(=O)=O)c(CN(C)OCC2CCCCO2)c1Cl (stereo not shown) [VIII-65] | logPacidic = 2.87 |
| CONCc1c(S(C)(=O)=O)ccc(C(=O)OC)c1Cl [VIII-21] | logPacidic = 1.69 |
| CCS(=O)(=O)NCCOc1c(Br)ccc(C(=O)OC)c1C [VIII-29] | logPacidic = 2.46 |
| CCON(Cc1c(S(C)(=O)=O)ccc(C(=O)OC)c1Cl)C(C)C [VIII-44] | logPacidic = 3.52 |
| COC(=O)c1ccc(S(C)(=O)=O)c(CN(CC(=O)N(C)C)OC)c1Cl [VIII-53] | logPacidic = 1.74 |

Same assay, conditions: HPLC, reversed-phase C 18, 43° C.; mobile phase range not marked

| SMILES | log P | logP (HPLC, mobile phase not marked) |
| --- | --- | --- |
| CCOC(=O)c1ccc(Cl)c(OCCNS(C)(=O)=O)c1Cl [VIII-14] | logP = 2.24 | – |
| CCn1nc(C)c(C(=O)c2ccc(S(C)(=O)=O)c(CN(C)OC)c2Cl)c1O [Example 307] | – | 1.45 |
| CCOC(=O)c1ccc(Cl)c(OCCNS(=O)(=O)CCl)c1Cl [VIII-16] | logP = 2.80 | – |
| CCn1ncc(C(=O)c2ccc(S(C)(=O)=O)c(CNOC)c2Cl)c1O [Example 299] | – | 1.20 |
| CCONCc1c(S(C)(=O)=O)ccc(C(=O)OC)c1Cl [VIII-11] | logP = 2.05 | – |
| CONCc1c(Cl)ccc(C(=O)OC)c1Cl [VIII-6] | logP = 2.26 | – |
| COC(=O)c1ccc(Cl)c(CN(C)OC)c1Cl [VIII-8] | logP = 3.08 | – |
| CCOC(=O)c1ccc(Cl)c(OCCNS(=O)(=O)c2cccs2)c1Cl [VIII-18] | logP = 3.20 | – |
| CCN(Cc1c(S(C)(=O)=O)ccc(C(=O)C2C(=O)CCCC2=O)c1Cl)OC [Example 308] | – | (I-2) 2.87 |

Same assay, conditions: reversed-phase C18 HPLC column; HPLC, reversed-phase C 18, 43° C.; mobile phase range not marked; read-out: log P

| chromatographic logP | SMILES |
| --- | --- |
| 1.99 | CON(C)Cc1c(Cl)ccc(C(=O)O)c1Cl [II-1, 2,4-dichloro-3-(N-methoxy-N-methylaminomethyl)benzoic acid] |
